Measurements: patent publication US20260232767A1, “INTERLEUKIN-23 RECEPTOR ANTAGONIST PEPTIDES FOR USE IN THE TREATMENT OF PSORIASIS” (Janssen Pharmaceutica NV, priority 2023, published 2026)

Test system: subjects with moderate-to-severe plaque psoriasis
Experiment: Safety, adverse events, Example 2 through Week 56
Format: in vivo, human
Source text: The LTE safety analysis was based on randomized participants in Example who entered the present long-term extension study and received at least one dose of study intervention (including a partial dose) during the study period.

[1] = 25 mg QD, LTE Safety analysis set
[2] = 50 mg QD, Week 16 through Week 56
[3] = 50 mg QD, LTE Safety analysis set

## CC(=O)NCCCC[C@@H]1NC(=O)[C@H](Cc2c[nH]c3c(C)cccc23)NC(=O)[C@H]([C@@H](C)O)NC(=O)[C@H](CC(N)=O)NC(=O)[C@@H](NC(C)=O)C(C)(C)SSC(C)(C)[C@@H](C(=O)N[C@@H](Cc2ccc(OCCN)cc2)C(=O)N[C@@H](Cc2ccc3ccccc3c2)C(=O)NC2(C(=O)N[C@@H](CCC(=O)O)C(=O)N[C@@H](CC(N)=O)C(=O)N[C@@H](Cc3cccnc3)C(=O)N(C)CC(N)=O)CCOCC2)NC1=O [IL-23 receptor antagonist peptide, Ac-[Pen]*-N-T-[W(7-Me)]-[Lys(Ac)]-[Pen]*-Phe[4-(2-aminoethoxy)]-[2-Nal]-[THP]-E-N-[3-Pal]-Sarc-NH2 (*[Pen]-[Pen]* formdisulfidebond)]
25 mg QD, through Week 56
  Cardiac disorders: number of subjects: 0
  Chills: number of subjects: 0
  Cholelithiasis: number of subjects: 0
  Chronic obstructive pulmonary disease: number of subjects: 0
  Coronary artery disease: number of subjects: 0
  Cough: % of subjects: (2.3%)
  Cough: number of subjects: 1
  Decreased appetite: % of subjects: (2.3%)
  Decreased appetite: number of subjects: 1
  Depression: number of subjects: 0
  Dermal cyst: % of subjects: (2.3%)
  Dermal cyst: number of subjects: 1
  Dermatitis acneiform: number of subjects: 0
  Dermatitis contact: number of subjects: 0
  Diabetes mellitus: % of subjects: (2.3%)
  Diabetes mellitus: number of subjects: 1
  Diffuse alopecia: % of subjects: (2.3%)
  Diffuse alopecia: number of subjects: 1
  Dysuria: number of subjects: 0
  Ear and labyrinth disorders: % of subjects: (2.3%)
  Ear and labyrinth disorders: number of subjects: 1
  Endocrine disorders: number of subjects: 0
  Eye disorders: number of subjects: 0
  Eyelid skin dryness: number of subjects: 0
  Fatigue: number of subjects: 0
  General disorders and administration site conditions: % of subjects: (2.3%)
  General disorders and administration site conditions: number of subjects: 1
  Goiter: number of subjects: 0
  Haemochromatosis: number of subjects: 0
  Hand dermatitis: number of subjects: 0
  Hematuria: number of subjects: 0
  Hepatobiliary disorders: % of subjects: (2.3%)
  Hepatobiliary disorders: number of subjects: 1
  Hypercholesterolemia: number of subjects: 0
  Hyperglycemia: number of subjects: 0
  Hyperlipidemia: number of subjects: 0
  Hypertension: number of subjects: 0
  Hypertransaminasemia: number of subjects: 0
  Hypertriglyceridemia: % of subjects: (2.3%)
  Hypertriglyceridemia: number of subjects: 1
  Hypoacusis: number of subjects: 0
  Immune system disorders: number of subjects: 0
  Influenza like illness: number of subjects: 0
  Insomnia: number of subjects: 0
  Intertrigo: number of subjects: 0
  Ketonuria: number of subjects: 0
  Leukocyturia: number of subjects: 0
  Leukopenia: number of subjects: 0
  Libido decreased: number of subjects: 0
  Liver disorder: number of subjects: 0
  Lymphopenia: number of subjects: 0
  Menopause: number of subjects: 0
  Metabolism and nutrition disorders: % of subjects: (4.7%)
  Metabolism and nutrition disorders: number of subjects: 2
  Neoplasms benign, malignant and unspecified (incl cysts and polyps): number of subjects: 0
  Nephrolithiasis: number of subjects: 0
  Neutropenia: number of subjects: 0
  Night sweats: number of subjects: 0
  Non-cardiac chest pain: number of subjects: 0
  Ocular cyst: number of subjects: 0
  Oedema peripheral: number of subjects: 0
  Oropharyngeal pain: number of subjects: 0
  Procedural pain: number of subjects: 0
  Productive cough: number of subjects: 0
  Proteinuria: number of subjects: 0
  Pruritus: number of subjects: 0
  Psoriasis: number of subjects: 0
  Psychiatric disorders: number of subjects: 0
  Pyrexia: % of subjects: (2.3%)
  Pyrexia: number of subjects: 1
  Rash pruritic: number of subjects: 0
  Renal and urinary disorders: % of subjects: (2.3%)
  Renal and urinary disorders: number of subjects: 1
  Renal mass: % of subjects: (2.3%)
  Renal mass: number of subjects: 1
  Respiratory, thoracic and mediastinal disorders: % of subjects: (2.3%)
  Respiratory, thoracic and mediastinal disorders: number of subjects: 1
  Retinal vein occlusion: number of subjects: 0
  Rhinorrhoea: number of subjects: 0
  Seasonal allergy: number of subjects: 0
  Skin and subcutaneous tissue disorders: % of subjects: (7.0%)
  Skin and subcutaneous tissue disorders: number of subjects: 3
  Skin laceration: number of subjects: 0
  Skin papilloma: number of subjects: 0
  Social circumstances: number of subjects: 0
  Steatohepatitis: % of subjects: (2.3%)
  Steatohepatitis: number of subjects: 1
  Subjects with 1 or more treatment-emergent serious adverse events: 0
  Subjects with AE leading to discontinuation: Abdominal discomfort: 0
  Subjects with AE leading to discontinuation: Abdominal pain: 0
  Subjects with AE leading to discontinuation: Asthenia: 0
  Subjects with AE leading to discontinuation: Chills: 0
  Subjects with AE leading to discontinuation: Ear and labyrinth disorders: 0
  Subjects with AE leading to discontinuation: Gastrointestinal disorders: 0
  Subjects with AE leading to discontinuation: General disorders and administration site conditions: 0
  Subjects with AE leading to discontinuation: Headache: 0
  Subjects with AE leading to discontinuation: Insomnia: 0
  Subjects with AE leading to discontinuation: Nausea: 0
  Subjects with AE leading to discontinuation: Nervous system disorders: 0
  Subjects with AE leading to discontinuation: Proctalgia: 0
  Subjects with AE leading to discontinuation: Psoriasis: 0
  Subjects with AE leading to discontinuation: Psychiatric disorders: 0
  Subjects with AE leading to discontinuation: Skin and subcutaneous tissue disorders: 0
  Subjects with AE leading to discontinuation: Suicide attempt: 0
  Subjects with AE leading to discontinuation: Vertigo: 0
  Subjects with AE leading to discontinuation: Vomiting: 0
  Subjects with COVID-19 associated AE: SARS-CoV-2 test positive: 0
  Subjects with treatment-emergent AE: Influenza: 0
  Subjects with treatment-emergent serious AE: COVID-19: 0
  Subjects with treatment-emergent serious AE: Cardiac disorders: 0
  Subjects with treatment-emergent serious AE: Cerebrovascular accident: 0
  Subjects with treatment-emergent serious AE: Coronary artery disease: 0
  Subjects with treatment-emergent serious AE: Diverticulitis: 0
  Subjects with treatment-emergent serious AE: Foot deformity: 0
  Subjects with treatment-emergent serious AE: General disorders and administration site conditions: 0
  Subjects with treatment-emergent serious AE: Infected cyst: 0
  Subjects with treatment-emergent serious AE: Infections and infestations: 0
  Subjects with treatment-emergent serious AE: Injury, poisoning and procedural complications: 0
  Subjects with treatment-emergent serious AE: Intervertebral disc protrusion: 0
  Subjects with treatment-emergent serious AE: Ligament injury: 0
  Subjects with treatment-emergent serious AE: Musculoskeletal and connective tissue disorders: 0
  Subjects with treatment-emergent serious AE: Neoplasms benign, malignant and unspecified (incl cysts and polyps): 0
  Subjects with treatment-emergent serious AE: Nervous system disorders: 0
  Subjects with treatment-emergent serious AE: Non-cardiac chest pain: 0
  Subjects with treatment-emergent serious AE: Psychiatric disorders: 0
  Subjects with treatment-emergent serious AE: Respiratory, thoracic and mediastinal disorders: 0
  Subjects with treatment-emergent serious AE: Suicide attempt: 0
  Subjects with treatment-emergent serious AE: Tonsillar hypertrophy: 0
  Subjects with treatment-emergent serious AE: Uterine leiomyoma: 0
  Subjects with treatment-emergent serious AE: Ventricular dysfunction: 0
  Suicide attempt: number of subjects: 0
  Sunburn: number of subjects: 0
  Thrombocytopenia: % of subjects: (2.3%)
  Thrombocytopenia: number of subjects: 1
  Thrombocytosis: number of subjects: 0
  Tonsillar hypertrophy: number of subjects: 0
  Tooth fracture: number of subjects: 0
  Type 2 diabetes mellitus: number of subjects: 0
  Urinary tract disorder: number of subjects: 0
  Uterine leiomyoma: number of subjects: 0
  Vascular disorders: number of subjects: 0
  Ventricular dysfunction: number of subjects: 0
  Vertigo: % of subjects: (2.3%)
  Vertigo: number of subjects: 1
  Vitamin D deficiency: number of subjects: 0
[1]
  Subjects with 1 or more Serious Infections and infestations: 0
  Subjects with 1 or more Serious adverse events: 0
  Subjects with adverse event: Arthralgia: 0
  Subjects with adverse event: Hypertension: 0
  Subjects with adverse event: Influenza: 0
  Subjects with adverse event: Sinusitis: 0
  Subjects with adverse event: Vomiting: 0
  Subjects with serious adverse event: Cerebrovascular accident: 0
  Subjects with serious adverse event: Coronary artery disease: 0
  Subjects with serious adverse event: Diverticulitis: 0
  Subjects with serious adverse event: Foot deformity: 0
  Subjects with serious adverse event: Intervertebral disc protrusion: 0
  Subjects with serious adverse event: Ligament injury: 0
  Subjects with serious adverse event: Non-cardiac chest pain: 0
  Subjects with serious adverse event: Tonsillar hypertrophy: 0
  Subjects with serious adverse event: Uterine leiomyoma: 0
  Subjects with serious adverse event: Ventricular dysfunction: 0
25 mg QD, Week 16-56
  Subjects with 1 or more treatment-emergent serious adverse events: 0
  Subjects with AE leading to discontinuation: Asthenia: 0
  Subjects with AE leading to discontinuation: Chills: 0
  Subjects with AE leading to discontinuation: Ear and labyrinth disorders: 0
  Subjects with AE leading to discontinuation: Gastrointestinal disorders: 0
  Subjects with AE leading to discontinuation: General disorders and administration site conditions: 0
  Subjects with AE leading to discontinuation: Headache: 0
  Subjects with AE leading to discontinuation: Insomnia: 0
  Subjects with AE leading to discontinuation: Nervous system disorders: 0
  Subjects with AE leading to discontinuation: Proctalgia: 0
  Subjects with AE leading to discontinuation: Psoriasis: 0
  Subjects with AE leading to discontinuation: Psychiatric disorders: 0
  Subjects with AE leading to discontinuation: Skin and subcutaneous tissue disorders: 0
  Subjects with AE leading to discontinuation: Vertigo: 0
  Subjects with AE leading to discontinuation: Vomiting: 0
  Subjects with COVID-19 associated AE of interest: SARS-CoV-2 test positive: 0
  Subjects with treatment-emergent AE: Arthralgia: 0
  Subjects with treatment-emergent AE: Hypertension: 0
  Subjects with treatment-emergent AE: Influenza: 0
  Subjects with treatment-emergent AE: Musculoskeletal and connective tissue disorders: 0
  Subjects with treatment-emergent AE: Sinusitis: 0
  Subjects with treatment-emergent AE: Vascular disorders: 0
  Subjects with treatment-emergent AE: Vomiting: 0
  Subjects with treatment-emergent serious AE: Cardiac disorders: 0
  Subjects with treatment-emergent serious AE: Cerebrovascular accident: 0
  Subjects with treatment-emergent serious AE: Coronary artery disease: 0
  Subjects with treatment-emergent serious AE: Diverticulitis: 0
  Subjects with treatment-emergent serious AE: Foot deformity: 0
  Subjects with treatment-emergent serious AE: General disorders and administration site conditions: 0
  Subjects with treatment-emergent serious AE: Infections and infestations: 0
  Subjects with treatment-emergent serious AE: Injury, poisoning and procedural complications: 0
  Subjects with treatment-emergent serious AE: Intervertebral disc protrusion: 0
  Subjects with treatment-emergent serious AE: Ligament injury: 0
  Subjects with treatment-emergent serious AE: Musculoskeletal and connective tissue disorders: 0
  Subjects with treatment-emergent serious AE: Neoplasms benign, malignant and unspecified (incl cysts and polyps): 0
  Subjects with treatment-emergent serious AE: Nervous system disorders: 0
  Subjects with treatment-emergent serious AE: Non-cardiac chest pain: 0
  Subjects with treatment-emergent serious AE: Respiratory, thoracic and mediastinal disorders: 0
  Subjects with treatment-emergent serious AE: Tonsillar hypertrophy: 0
  Subjects with treatment-emergent serious AE: Uterine leiomyoma: 0
  Subjects with treatment-emergent serious AE: Ventricular dysfunction: 0
[2]
  Number of subjects with treatment-emergent AE: Cholelithiasis: 0
  Number of subjects with treatment-emergent AE: Ear and labyrinth disorders: 0
  Number of subjects with treatment-emergent AE: Endocrine disorders: 0
  Number of subjects with treatment-emergent AE: Eye disorders: 0
  Number of subjects with treatment-emergent AE: Eyelid skin dryness: 0
  Number of subjects with treatment-emergent AE: Goiter: 0
  Number of subjects with treatment-emergent AE: Hepatobiliary disorders: 0
  Number of subjects with treatment-emergent AE: Hypertransaminasemia: 0
  Number of subjects with treatment-emergent AE: Immune system disorders: 1
  Number of subjects with treatment-emergent AE: Insomnia: 0
  Number of subjects with treatment-emergent AE: Ocular cyst: 0
  Number of subjects with treatment-emergent AE: Psychiatric disorders: 0
  Number of subjects with treatment-emergent AE: Retinal vein occlusion: 0
  Number of subjects with treatment-emergent AE: Seasonal allergy: 1
  Number of subjects with treatment-emergent AE: Vertigo: 0
  Subjects with treatment-emergent AE: Immune system disorders (%): (2.6%)
  Subjects with treatment-emergent AE: Seasonal allergy (%): (2.6%)
[3]
  Subjects who discontinued study agent because of 1 or more adverse events: 0
  Subjects with 1 or more Serious Infections and infestations: 0
  Subjects with adverse event: Headache: 0
  Subjects with adverse event: Meniscus injury: 0
  Subjects with adverse event: Vomiting: 0
  Subjects with serious adverse event: Cerebrovascular accident: 0
  Subjects with serious adverse event: Diverticulitis: 0
  Subjects with serious adverse event: Intervertebral disc protrusion: 0
  Subjects with serious adverse event: Ligament injury: 0
  Subjects with serious adverse event: Tonsillar hypertrophy: 0
  Subjects with serious adverse event: Uterine leiomyoma: 0
  Subjects with serious adverse event: Ventricular dysfunction: 0
50 mg QD, Week 16-56
  Subjects with 1 or more treatment-emergent adverse events leading to discontinuation of study agent: 0
  Subjects with AE leading to discontinuation: Alanine aminotransferase increased: 0
  Subjects with AE leading to discontinuation: Aspartate aminotransferase increased: 0
  Subjects with AE leading to discontinuation: Asthenia: 0
  Subjects with AE leading to discontinuation: Chills: 0
  Subjects with AE leading to discontinuation: Ear and labyrinth disorders: 0
  Subjects with AE leading to discontinuation: Gamma-glutamyltransferase increased: 0
  Subjects with AE leading to discontinuation: Gastrointestinal disorders: 0
  Subjects with AE leading to discontinuation: General disorders and administration site conditions: 0
  Subjects with AE leading to discontinuation: Headache: 0
